Measurements as given in patent publication US20230183291A1, “ANTI-INFECTIVE BICYCLIC PEPTIDE LIGANDS” (priority 2020, published 2023).

Assays:
[1] = target: T1, Biotinylated Human ACE2, His, Avitag protein (Homo sapiens, UniProt Q9BYF1); test: Surface plasmon resonance (SPR) multiple cycle kinetics (MCK) direct binding; settings: 25° C., 6.25 nM to 100 nM analyte, Langmuir (1:1) model
T1 construct: His; purchased ACROBiosystems AC2-H82E6
Method: 3. Affinity Determination by Surface Plasmon Resonance (SPR) Via Multiple Cycle Kinetics (MCK)
Binding of bicyclic peptides of the invention to Biotinylated Human ACE2, His, Avitag™ protein (ACROBiosystems, AC2-H82E6) was assessed by a MCK analysis. Experiments were performed at 25° C. on a Biacore T200 (Cytiva) running Biacore T200 Control software V2.0.1 and Evaluation software V3.0 (Cytiva). HBS-EP+(Cytiva) was used as running buffer as well as for ligand and analyte dilutions. Biotin CAPture reagent was loaded onto a Series S Sensor CAP Chip (Cytiva) followed by loading of biotinylated ACE2 at a flow rate of 2 μl/min. The surface was then allowed to stabilise.
MCK data was obtained using bicyclic peptides of the invention as analytes injected at a flow rate of 30 μl/min to minimise any potential mass transfer effects. A five point, two-fold dilution range from 6.25 nM to 100 nM of analyte was prepared in running buffer. For each concentration, the association phases were monitored for 250 seconds and the dissociation phase was measured for 450 seconds. Regeneration of the sensor chip surface was conducted between cycles using the CAP Chip standard regeneration buffer (Cytiva). Multiple repeats of a blank and of Bicycle were programmed into the kinetic run in order to check the stability of both the surface and analyte over the kinetic cycles. […]

[2] = target: T1, Biotinylated Human ACE2, His, Avitag protein; test: Surface plasmon resonance (SPR) single cycle kinetics (SCK) direct binding; settings: 25° C., Langmuir (1:1) model
Method: 2. Affinity Determination by Surface Plasmon Resonance (SPR) Via Single Cycle Kinetics (SCK)
Binding of bicyclic peptides of the invention to Biotinylated Human ACE2, His, Avitag™ protein (ACROBiosystems, AC2-H82E6) was assessed by a SCK analysis. Experiments were performed at 25° C. on a Biacore T200 (Cytiva) running Biacore T200 Control software V2.0.1 and Evaluation software V3.0 (Cytiva). HBS-EP+ (Cytiva) was used as running buffer as well as for ligand and analyte dilutions. Biotin CAPture reagent was loaded onto a Series S Sensor CAP Chip (Cytiva) followed by loading of the ACE2 protein at a flow rate of 2 μl/min. The surface was then allowed to stabilise.
SCK data was obtained using bicyclic peptides of the invention as analytes injected at a flow rate of 30 μl/min to minimise any potential mass transfer effects. A minimum four point 2-fold dilution of analyte based on the affinity of the bicyclic peptides of the invention in running buffer was used without regeneration between each concentration. The association phases were monitored for 100 seconds for each of the four injections of increasing concentrations of analyte and a single dissociation phase was measured for 400 seconds following the last injection of analyte. Regeneration of the sensor chip surface was conducted using the CAP Chip standard regeneration buffer (Cytiva).
The signal from the reference channel Fc1 (no ACE2 captured) was subtracted from that of Fc2, Fc3 and Fc4 to correct for bulk effect and differences in non-specific binding to a reference surface. The signal from each blank run (Fc2-ACE2 captured but no antigen) was subtracted to correct for differences in surface stability. The double referenced sensorgrams were fitted with the Langmuir (1:1) binding model (Equation 1a below) where the closeness of fit of the data to the model is evaluated using the Chi square value which describes the deviation between the experimental and fitted (observed and expected) curves (Equation 1b below).

T1 sequence (Q9BYF1 18-740 limits assumed): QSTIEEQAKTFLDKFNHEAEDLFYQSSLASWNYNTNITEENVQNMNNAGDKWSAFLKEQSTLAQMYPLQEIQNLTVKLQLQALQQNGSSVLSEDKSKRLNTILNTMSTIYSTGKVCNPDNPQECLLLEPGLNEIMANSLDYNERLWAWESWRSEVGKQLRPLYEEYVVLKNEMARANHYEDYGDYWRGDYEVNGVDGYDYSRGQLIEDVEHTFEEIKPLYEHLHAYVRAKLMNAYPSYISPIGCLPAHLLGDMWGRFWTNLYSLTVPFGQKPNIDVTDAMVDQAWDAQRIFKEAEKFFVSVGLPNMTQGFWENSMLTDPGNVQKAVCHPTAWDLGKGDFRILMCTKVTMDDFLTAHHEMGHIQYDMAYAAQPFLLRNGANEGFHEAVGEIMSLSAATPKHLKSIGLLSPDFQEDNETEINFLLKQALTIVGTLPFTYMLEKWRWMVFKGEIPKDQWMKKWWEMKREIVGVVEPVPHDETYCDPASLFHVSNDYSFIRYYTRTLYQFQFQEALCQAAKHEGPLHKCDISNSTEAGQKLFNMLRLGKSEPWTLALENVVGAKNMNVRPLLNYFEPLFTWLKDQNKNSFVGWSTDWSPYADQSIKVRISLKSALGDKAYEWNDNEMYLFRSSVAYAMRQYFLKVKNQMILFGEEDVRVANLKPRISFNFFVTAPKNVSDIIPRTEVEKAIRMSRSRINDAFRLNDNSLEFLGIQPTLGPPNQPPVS

Substance	Geometric Mean KD (nM) [1]	Geometric Mean KD (nM) [2]
CiNAVLCiiSWA[HArg][HyP]NSFCiii cyclised with TATA [BCY19024, Ac-(SEQ ID NO: 56)]	No sig. binding at top conc. tested	–
CiNAVLCiiSWA[HArg][dA]NSFCiii cyclised with TATA [BCY18256, Ac-(SEQ ID NO: 45)]	–	No sig. binding at top conc. tested
CiNDVLCiiSWA[HArg]ANSFCiii cyclised with TATA [BCY18659, Ac-(SEQ ID NO: 54)]	–	No sig. binding at top conc. tested
CiNEVLCiiSWA[HArg]ANSFCiii cyclised with TATA [BCY18783, Ac-(SEQ ID NO: 55)]	–	No sig. binding at top conc. tested
